Reference: US20250026750A1, “SULFOXIMINE-CONTAINING ATR INHIBITOR COMPOUND” (Chia Tai Tianqing Pharmaceutical Group Co., Ltd., priority 2021, published 2025)

Tests used:
TMD-8 cells = assay: Assay for inhibitory activity on TMD-8 cell proliferation (CCK-8); type: cell-based
Description: TMD-8 cells in a good growth state were collected into a centrifuge tube, adjusted to a cell density of 4×10^4 cells/mL, and inoculated onto a 96-well plate (100 μL/well), and the plate was incubated overnight in a cell incubator. Compounds were added using a nanoliter pipettor such that the final concentrations of the compounds were 10,000 nM-4.57 nM (the addition was performed in duplicate). Meanwhile, a control was set. After another 72 h of incubation in the cell incubator, the assay reagent CCK-8 (manufacturer: Dojindo Laboratories; 10 μL/well) was added. After 4 h of incubation in the cell incubator, absorbance was measured at 450 nm on an Envision microplate reader. A four-parameter analysis was performed, a dose-response curve was fit, and IC50 was calculated. The results are shown in Table 2, where A represents IC50≤200 nM.

ATR kinase = ATR kinase (Homo sapiens (Human), UniProt Q13535); assay: Screening for in vitro inhibitory activity against ATR kinase; type: biochemical; conditions: 10 μM ATP, 0.1 μM U Light-poly GT substrate
Description: A 50 ng/μL ATR stock solution was diluted with a kinase buffer (50 mM HEPES, 10 mM MgCl2, 2 mM DTT, 1 mM EGTA, 0.01% Tween 20), and 6 μL of 1.67×, 0.0835 ng/μL working solution was added to each well (final concentration: 0.05 ng/μL). Different compounds dissolved in DMSO were added to wells using a nanoliter pipettor, such that the final concentrations of the compounds were 1000 nM-0.24 nM and the concentrations in positive wells were 100 nM-0.024 nM (4-fold gradient, 7 concentrations in total). Meanwhile, a blank control well (containing no enzyme) and a negative control well (containing enzyme, with the vehicle DMSO added) were set. After the enzyme had reacted with the compound or vehicle for 30 min, a 5×, 50 μM ATP (final concentration: 10 μM) prepared with the kinase buffer and a 5×, 0.5 μM substrate (final concentration: 0.1 μM, U Light-poly GT) were 1:1 mixed, and the mixture was added to wells at 4 μL/well. After the plate was sealed with a sealing film and the plate was incubated at room temperature for 2 h, 5 μL of 4×, 40 mM EDTA (final concentration: 10 mM) was added to each well. After 5 min of incubation at room temperature, 5 μL of a 4×, 8 nM assay reagent (final concentration: 2 nM, Ep-anti-phospho-tyrosine antibody) was added to each well. The plate was incubated at room temperature for 1 h. Plate reading was performed on a PE instrument (excitation: 320 or 340 nm; emission: 665 nm), and four-parameter fitting and IC50 calculations were performed. The results are shown in Table 1, where A represents IC50<50 nM.

[1] = In vitro liver microsomal stability; type: in vitro ADME; conditions: human liver microsomes, NADPH, 37° C.
Description: A 200-μL final incubation system contained 20 μL of liver microsomes (protein concentration: 5 mg/mL), 20 μL of NADPH+MgCl2, 2 μL of a substrate, and 158 μL of PBS buffer. The proportion of the organic solvent was 1%. The assay was performed in duplicate (0.2 mL each) for each species. A 180-μL mixture of substrate and enzyme was prepared in each tube. After the mixture and NADPH were pre-incubated at 37° C. for 5 min, 20 μL of NADPH+MgCl2 was added and mixed. 50-μL samples were taken at 0, 15 and 60 min, and the reactions were stopped using ice-cold acetonitrile containing an internal standard.
50-μL incubated samples were taken, and 300 μL of internal standard-containing acetonitrile was added for precipitation. After 5 min of vortexing and shaking, centrifugation (13,000 rpm, 20° C.) was performed for 10 min. 80 μL of the supernatant was added to a 96-well plate and diluted with 80 μL of ultrapure water, and 1 μL of the dilution was injected for LC-MS/MS analysis.

[2] = Pharmacokinetic evaluation of compounds in mice; type: in vivo; conditions: ICR mice
Description: ICR mice, weighing 18-22 g, were randomized into 4 groups of 9 after 3-5 days of acclimatization, and were administered intragastrically (IG) a test compound at a dose of 10 mg/kg and intravenously (IV) a test compound at a dose of 1 mg/kg.
The test animals (ICR mice) were fasted for 12 h before the administration and given food 4 h after the administration, and they were given ad libitum access to water before, during and after the experiment.
Orbital blood samples of about 0.1 mL were collected at 15 min, 30 min, 1 h, 2 h, 3 h, 4 h, 6 h, 8 h, 10 h and 24 h after the intragastric administration. Orbital blood samples of about 0.1 mL were collected at 5 min, 10 min, 30 min, 1 h, 2 h, 4 h, 6 h, 8 h, 10 h and 24 h after the intravenous administration. The blood sample collection was performed at 3-4 time points for each mouse, 3 mice/per time point. The collected whole blood was placed in EDTA-K2-containing centrifuge tubes and stored at 4° C., and, within 1 h, was centrifuged at 4° C. at 4000 rpm for 10 min to separate plasma. All plasma samples were collected and immediately stored at −20° C. for testing. 30 μL of a plasma sample to be tested and a standard-curve sample were collected, and 300 μL of an acetonitrile solution containing an internal standard (20 ng/mL diazepam) was added and well mixed by 5 min of shaking. The mixture was centrifuged at 13,000 rpm for 10 min, and 80 µL of the supernatant was collected and diluted with 80 μL of ultrapure water. After well mixing, 2 μL of the dilution was collected for liquid chromatography-mass spectrometry analysis, and pharmacokinetic parameters were calculated.

[3] = Homo sapiens, TMD8, 72 h incubation
[4] = plasma, IG 10 mg/kg / IV 1 mg/kg study

ATR kinase, sequence (Q13535 whole entry): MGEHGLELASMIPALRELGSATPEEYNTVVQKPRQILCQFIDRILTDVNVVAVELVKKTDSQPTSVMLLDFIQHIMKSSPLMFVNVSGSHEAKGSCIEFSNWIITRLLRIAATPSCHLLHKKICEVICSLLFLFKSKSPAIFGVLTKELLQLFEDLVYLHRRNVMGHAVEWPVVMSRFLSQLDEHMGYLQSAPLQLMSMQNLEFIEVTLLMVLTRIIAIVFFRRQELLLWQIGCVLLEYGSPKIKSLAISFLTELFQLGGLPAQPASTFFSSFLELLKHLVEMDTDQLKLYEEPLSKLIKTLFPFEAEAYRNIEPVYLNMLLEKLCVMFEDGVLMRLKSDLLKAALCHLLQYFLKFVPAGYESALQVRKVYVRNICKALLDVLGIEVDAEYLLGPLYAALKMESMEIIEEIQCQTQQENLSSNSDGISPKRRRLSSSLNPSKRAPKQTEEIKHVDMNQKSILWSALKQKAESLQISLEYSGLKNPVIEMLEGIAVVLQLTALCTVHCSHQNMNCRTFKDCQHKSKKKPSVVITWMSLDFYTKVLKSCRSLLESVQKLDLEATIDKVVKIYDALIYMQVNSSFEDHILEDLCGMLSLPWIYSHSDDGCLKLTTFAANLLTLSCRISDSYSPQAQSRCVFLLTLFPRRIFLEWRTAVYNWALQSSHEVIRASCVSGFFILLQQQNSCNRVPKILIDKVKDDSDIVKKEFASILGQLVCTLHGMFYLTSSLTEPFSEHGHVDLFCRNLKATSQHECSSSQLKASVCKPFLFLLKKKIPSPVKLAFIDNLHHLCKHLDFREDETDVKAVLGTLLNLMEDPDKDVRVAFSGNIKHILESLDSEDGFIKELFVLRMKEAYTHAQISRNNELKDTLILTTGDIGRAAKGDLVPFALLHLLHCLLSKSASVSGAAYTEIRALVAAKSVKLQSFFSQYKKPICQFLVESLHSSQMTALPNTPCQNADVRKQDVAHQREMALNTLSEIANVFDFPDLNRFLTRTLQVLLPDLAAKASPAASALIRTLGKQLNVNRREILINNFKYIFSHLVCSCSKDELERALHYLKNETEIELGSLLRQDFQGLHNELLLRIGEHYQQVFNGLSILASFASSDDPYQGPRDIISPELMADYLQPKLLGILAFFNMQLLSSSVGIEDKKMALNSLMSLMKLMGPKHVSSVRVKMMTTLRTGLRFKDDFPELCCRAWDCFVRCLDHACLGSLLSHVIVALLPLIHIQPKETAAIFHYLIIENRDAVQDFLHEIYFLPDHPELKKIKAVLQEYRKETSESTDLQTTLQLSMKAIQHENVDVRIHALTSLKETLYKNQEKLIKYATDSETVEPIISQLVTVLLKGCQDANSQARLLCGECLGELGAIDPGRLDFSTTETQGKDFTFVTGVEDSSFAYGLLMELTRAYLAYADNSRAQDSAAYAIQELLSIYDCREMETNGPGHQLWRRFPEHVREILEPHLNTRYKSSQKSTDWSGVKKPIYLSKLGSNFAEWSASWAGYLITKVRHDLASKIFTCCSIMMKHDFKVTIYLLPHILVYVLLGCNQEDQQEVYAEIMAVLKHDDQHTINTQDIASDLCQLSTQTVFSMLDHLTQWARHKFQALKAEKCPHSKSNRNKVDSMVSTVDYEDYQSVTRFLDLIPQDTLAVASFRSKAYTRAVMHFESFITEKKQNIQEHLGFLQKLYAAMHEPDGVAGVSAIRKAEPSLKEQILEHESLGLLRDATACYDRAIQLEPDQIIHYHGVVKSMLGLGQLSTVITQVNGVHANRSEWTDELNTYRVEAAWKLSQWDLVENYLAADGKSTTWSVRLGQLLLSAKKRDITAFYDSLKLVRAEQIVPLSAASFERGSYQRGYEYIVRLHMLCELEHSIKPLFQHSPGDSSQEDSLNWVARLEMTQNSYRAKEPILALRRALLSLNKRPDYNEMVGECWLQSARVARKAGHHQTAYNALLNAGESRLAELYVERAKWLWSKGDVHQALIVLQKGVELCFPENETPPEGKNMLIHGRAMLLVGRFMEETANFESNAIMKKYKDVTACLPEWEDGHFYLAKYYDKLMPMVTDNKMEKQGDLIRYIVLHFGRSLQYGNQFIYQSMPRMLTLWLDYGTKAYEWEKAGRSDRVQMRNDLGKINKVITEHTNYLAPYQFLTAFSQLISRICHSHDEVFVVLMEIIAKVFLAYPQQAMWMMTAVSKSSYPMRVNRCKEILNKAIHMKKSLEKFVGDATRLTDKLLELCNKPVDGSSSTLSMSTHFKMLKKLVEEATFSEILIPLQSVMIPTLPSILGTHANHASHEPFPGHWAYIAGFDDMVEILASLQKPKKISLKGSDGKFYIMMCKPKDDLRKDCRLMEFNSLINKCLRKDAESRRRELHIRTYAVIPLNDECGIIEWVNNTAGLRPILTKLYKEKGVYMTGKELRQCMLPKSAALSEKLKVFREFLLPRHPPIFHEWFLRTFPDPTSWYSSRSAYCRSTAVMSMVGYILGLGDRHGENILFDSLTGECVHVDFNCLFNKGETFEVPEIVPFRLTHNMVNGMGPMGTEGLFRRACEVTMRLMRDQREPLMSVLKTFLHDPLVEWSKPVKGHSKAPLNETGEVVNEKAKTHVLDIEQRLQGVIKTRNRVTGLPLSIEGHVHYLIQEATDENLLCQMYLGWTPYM
ATR kinase, sequence (Q8WXE1 whole entry partner): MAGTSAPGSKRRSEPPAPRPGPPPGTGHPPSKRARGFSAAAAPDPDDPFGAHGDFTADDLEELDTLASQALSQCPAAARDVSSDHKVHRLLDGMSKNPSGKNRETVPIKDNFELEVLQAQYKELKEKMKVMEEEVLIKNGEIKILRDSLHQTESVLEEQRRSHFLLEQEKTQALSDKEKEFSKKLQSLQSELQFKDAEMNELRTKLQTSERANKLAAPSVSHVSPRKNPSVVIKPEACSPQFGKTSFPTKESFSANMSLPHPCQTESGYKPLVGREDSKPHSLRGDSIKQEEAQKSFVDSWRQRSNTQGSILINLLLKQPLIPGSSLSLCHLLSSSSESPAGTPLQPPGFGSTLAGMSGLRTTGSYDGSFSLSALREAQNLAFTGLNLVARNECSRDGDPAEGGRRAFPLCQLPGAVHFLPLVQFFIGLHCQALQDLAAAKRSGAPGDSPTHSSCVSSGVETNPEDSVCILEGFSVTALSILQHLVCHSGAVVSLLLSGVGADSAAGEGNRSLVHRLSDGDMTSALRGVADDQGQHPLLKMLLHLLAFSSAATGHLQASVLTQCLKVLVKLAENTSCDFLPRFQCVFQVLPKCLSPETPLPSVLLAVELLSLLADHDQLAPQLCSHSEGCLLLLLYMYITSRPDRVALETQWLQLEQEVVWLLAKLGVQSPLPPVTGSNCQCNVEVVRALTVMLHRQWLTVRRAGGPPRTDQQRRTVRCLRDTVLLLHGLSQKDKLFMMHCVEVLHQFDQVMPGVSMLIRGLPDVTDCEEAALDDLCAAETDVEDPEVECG

Row | Human liver microsome (Residual % at 60 min) [1] [%] | Compound | IC50 (TMD-8 cells; [3]) [nM] | other results
1 | – | C[C@@H]1COCCN1c1cc(N=S(C)(C)=O)c2c(C(C)(C)C)nn(-c3cc[nH]n3)c2n1 [Compound 25] | ≤ 200 | –
2 | – | C[C@@H]1COCCN1c1cc(N=S(C)(C)=O)c2c(CCC(F)(F)F)nn(-c3ccn[nH]3)c2n1 [Compound 24] | ≤ 200 | –
3 | – | C[C@@H]1COCCN1c1cc(N=[S@@](C)(=O)C2CCCC2)c2cnn(-c3ccn[nH]3)c2n1 (single isomer, unassigned) [Compound 15-A] | ≤ 200 | IC50 (ATR kinase): < 50 nM
4 | – | C[C@@H]1COCCN1c1cc(N=[S@](C)(=O)C2CCC(F)(F)CC2)c2cnn(-c3ccn[nH]3)c2n1 (single isomer, unassigned) [Compound 16-A] | – | IC50 (ATR kinase): < 50 nM
5 | 106.47 | C[C@@H]1COCCN1c1cc(N=S2(=O)CCC2)c2cnn(-c3ccn[nH]3)c2n1 [Compound 3] | ≤ 200 | –
6 | – | C[C@@H]1COCCN1c1cc(N=S(C)(=O)C(C)(C)C)c2cnn(-c3ccn[nH]3)c2n1 (some centres unmarked) [Compound 17] | ≤ 200 | –
7 | – | C[C@@H]1COCCN1c1cc(N=[S@@](C)(=O)c2ccc(F)cc2)c2cnn(-c3ccn[nH]3)c2n1 (single isomer, unassigned) [Compound 14-A] | – | IC50 (ATR kinase): < 50 nM
8 | – | C[C@@H]1COCCN1c1cc(N=S(C)(C)=O)c2c(C3CC3)nn(-c3ccn[nH]3)c2n1 [Compound 22] | ≤ 200 | –
9 | 85.89 | CCS(=O)(CC)=Nc1cc(N2CCOC[C@H]2C)nc2c1cnn2-c1ccn[nH]1 [Compound 2] | ≤ 200 | –
10 | – | CC(C)Cc1nn(-c2cc[nH]n2)c2nc(N3CCOC[C@H]3C)cc(N=S(C)(C)=O)c12 [Compound 21] | ≤ 200 | –
11 | 102.05 | C[C@@H]1COCCN1c1cc(N=S(C)(C)=O)c2cnn(-c3ccn[nH]3)c2n1 [Compound 1] | ≤ 200 | –
12 | 108.36 | Cc1cc(-n2ncc3c(N=S(C)(C)=O)cc(N4CCOC[C@H]4C)nc32)[nH]n1 [Compound 13] | – | IC50 (ATR kinase): < 50 nM
13 | 94.62 | C[C@@H]1COCCN1c1cc(N=S2(=O)CCOCC2)c2cnn(-c3ccn[nH]3)c2n1 [Compound 6] | – | –
14 | – | C[C@@H]1COCCN1c1cc(N=[S@@](C)(=O)C2CCCC2)c2cnn(-c3ccn[nH]3)c2n1 [Compound 15-B] | ≤ 200 | –
15 | – | Cc1cc(-n2ncc3c(N=[S@@](C)(=O)C4CC4)cc(N4CCOC[C@H]4C)nc32)[nH]n1 [Compound 19-A] | – | IC50 (ATR kinase): < 50 nM; IG half-life t1/2 ([2]; intragastric 10 mg/kg): 1.16 h; Area under plasma concentration-time curve AUC0-last [2, 4]: 5403 ng·h/mL; Peak concentration Cmax [2, 4]: 2948 ng/mL; Tissue distribution Vd ([2]; IG 10 mg/kg / IV 1 mg/kg study): 4.58 L/kg; Absolute bioavailability F ([2]; IG 10 mg/kg vs IV 1 mg/kg): 88%; IC50 (TMD-8 cells; 72 h incubation): ≤ 200 nM
16 | 96.49 | C[C@@H]1COCCN1c1cc(N=S2(=O)CCCC2)c2cnn(-c3ccn[nH]3)c2n1 [Compound 4] | ≤ 200 | –
17 | – | C[C@@H]1COCCN1c1cc(N=S(C)(C)=O)c2c(C#CC3CC3)nn(-c3cc[nH]n3)c2n1 [Compound 26] | ≤ 200 | –
18 | – | C[C@@H]1COCCN1c1cc(N=S2(=O)CCCCC2)c2cnn(-c3ccn[nH]3)c2n1 [Compound 5] | ≤ 200 | –
19 | – | C[C@@H]1COCCN1c1cc(N=S(C)(C)=O)c2c(C(F)(F)F)nn(-c3ccn[nH]3)c2n1 [Compound 23] | ≤ 200 | –
20 | – | Cc1nn(-c2ccn[nH]2)c2nc(N3CCOC[C@H]3C)cc(N=S(C)(C)=O)c12 [Compound 20] | ≤ 200 | bioavailability ([2]; mouse, plasma, oral, IG 10 mg/kg vs IV 1 mg/kg, read-out: Absolute bioavailability F): 74%; half-life ([2]; mouse, plasma, po, intragastric 10 mg/kg, read-out: IG half-life t1/2 (converted)): 1.93 h; Vd ([2]; mouse, plasma, IG 10 mg/kg / IV 1 mg/kg study, read-out: Tissue distribution Vd): 1.04 L/kg; AUC(0-t) ([2]; mouse, plasma, IG 10 mg/kg / IV 1 mg/kg study, read-out: Area under plasma concentration-time curve AUC0-last): 14600 ng·h/mL; Cmax ([2]; mouse, plasma, IG 10 mg/kg / IV 1 mg/kg study, read-out: Peak concentration Cmax): 6520 ng/mL

Row | Compound | Human liver microsome (Residual % at 60 min) [1] [%] | IC50 (TMD-8 cells; [3]) [nM] | other results
21 | C[C@@H]1COCCN1c1cc(N=[S@](C)(=O)C2CC2)c2cnn(-c3ccn[nH]3)c2n1 [Compound 10-A] | 95.39 | – | IC50 (ATR kinase): < 50 nM; IG half-life t1/2 ([2]; intragastric 10 mg/kg): 1.3 h; Area under plasma concentration-time curve AUC0-last [2, 4]: 13943 ng·h/mL; Peak concentration Cmax [2, 4]: 4888 ng/mL; Tissue distribution Vd ([2]; IG 10 mg/kg / IV 1 mg/kg study): 0.68 L/kg; Absolute bioavailability F ([2]; IG 10 mg/kg vs IV 1 mg/kg): 66%
